Reference: patent US20220125837A1, “METHODS FOR CONTROLLED ELIMINATION OF THERAPEUTIC CELLS” (Bellicum Pharmaceuticals, Inc., priority 2014, published 2022)
Where a chain is given by its changes, count along the chain named. Names and notes keep the numbering of the source. Like-named read-outs stand apart in the source and are kept apart here. Where a SMILES comes first, the peptide text is derived from it. The star is where a group is joined. Cbz = O=C(OCc1ccccc1)*; CH2F = FC*

Key:
[1] = cited from earlier work
CD3+ΔCD19+ cells = assay: CASPALLO phase I clinical trial: AP1903 in patients with GvHD after iCasp9 T cells; assay type: in vivo, human
Method: Prior to administration, the calculated dose was diluted to 100 mL in 0.9% normal saline for infusion.

cells = assay: AP1903 needed in vitro for effective signaling of cells; assay type: cell-based
Method: This equates to 16-160 μg/L or ˜0.016-1.6 mg/kg (1.6-160 μg/kg).

293 cells = assay: SRα-SEAP assay in 293 cells with FRBl2-tagged CAR and iCaspase-9: rapamycin or rimiducid; assay type: cell-based, human; settings: overnight
Method: Two tandem FRB, domains were fused to either either a 1st generation Her2-CAR or to a 1st generation CD19-CAR co-expressing inducibleiCaspase-9. 293 cells were transiently transfected with a constitutive reporter plasmid, SRα-SEAP, along with normalized levels of expression plasmids encoding Her2-CAR-FRBl2, iCaspase-9, Her2-CAR-FRBl2+iCasp9, iC9-CAR(19).FRBl2 (coexpressing both CD19-CAR-FRBl2 and iCaspase9), or control vector. […] After overnight incubation with drugs, SEAP activity was determined. […] This dose-dependent decrease required the presence of both the FRB-tagged CAR and the FKBP12-tagged Caspase-9. […] Moreover, on- or off-target-mediated CAR clustering should increase the sensitivity of killing primarily at the site of scFv engagement.
24 hours following transfection (4.1), 293T cells are split to 96-well plates and incubated with dilutions of dimerizing drugs. Briefly, 100 μL media is added to each well of a 96-well flat-bottom plate. Drugs are diluted in tubes to a concentration 4× the top concentration in the gradient to be place on the plate. […]
24 hours after drug stimulation, 96-well plates are wrapped to prevent evaporation and incubated at 65° C. for 2 hours to inactivate endogenous and serum phosphatases while the heat-stable SeAP reporter remains (3, 12, 14). […] Phosphatase activity is measured by fluorescence with excitation at 355 nm and emission at 460 nm. […]

human CD3+CD19+ T cells = assay: AP1903 dose-dependent elimination in vivo of iCasp9-transduced T cells; set-up: species or system immune deficient mice (NSG); settings: mouse
Method: The Caspase-9 polypeptide has a dose-response curve in vivo, which could be used to eliminate a variable fraction of T cells expressing the Caspase-9 polypeptide.
T cells were transduced with SFG-iCasp9-D330E-2A-ΔCD19 retrovirus and injected i.v. into immune deficient mice (NSG). […] After an additional 24 hours, mice were sacrificed and lymphocytes from the spleen (A) were isolated and analyzed by flow cytometry for the frequency of human CD3+CD19+ T cells.

[2] = molecular target: wt FRB (K2095 T2098 W2101) (Homo sapiens, UniProt P42345+P62942); settings: cited from earlier work
FRB-PLF = FRB-PLF (Homo sapiens, UniProt P42345+P62942, K2095P/T2098L/W2101F); settings: cited from earlier work
[3] = test system: F-Casp9M.I.GFPhigh-transduced T cells; assay: Annexin V/7-AAD staining of iCasp9M GFPhigh T cells after CID; assay type: cell-based, human; settings: 100 μM for 1 hour prior to adding CID
Method: CID (AP20187; ARIAD Pharmaceuticals) at indicated concentrations was added to transfected 293T cells or transduced CTLs. Adherent and nonadherent cells were harvested and washed with annexin binding buffer (BD Pharmingen, San Jose, Calif.). Cells were stained with annexin-V and 7-amino-actinomycin D (7-AAD) for 15 minutes according to the manufacturer's instructions (BD Pharmingen). Within 1 hour after staining, cells were analyzed by flow cytometry using CellQuest software (Becton Dickinson).
A representative example of 3 separate experiments is shown.
For clinical applications therefore, versions of the expression constructs with selectable markers that allow selection for high copy number, high levels of expression, or both high copy number and high levels of expression may be desirable. […] The dose response remained unchanged for at least 4 weeks after transduction.

FRB-KTF = FRB-KTF (Homo sapiens, UniProt P42345+P62942, W2101F); settings: cited from earlier work
PG13 packaging cells = assay type: cell-based
HEK293T/16 cells = assay: Secreted alkaline phosphatase (SEAP) surrogate killing assay of iCasp9 mutants; assay type: cell-based, human; settings: SEAP assay without AP1903; relative to wild type Caspase-9
Method: Early passage HEK293T/16 cells (ATCC, Manassas, Va.) were maintained in IMDM, GlutaMAX™ (Life Technologies, Carlsbad, Calif.) supplemented with 10% FBS, 100 U/mL penicillin, and 100 U/mL streptomycin until transfection in a humidified, 37° C., 5% CO2/95% air atmosphere. Cells in logarithmic-phase growth were transiently transfected with 800 ng to 2 μg of expression plasmid encoding iCasp9 mutants and 500 ng of an expression plasmid encoding SRα promoter driven SEAP per million cells in 15-mL conical tubes. […] GeneJammer® Transfection Reagent at a ratio of 3 μl per ug of plasmid DNA was used to transiently transfect HEK293T/16 cells in the absence of antibiotics. 100 μl or 2 mL of the transfection mixture was added to each well in 96-well or 6-well plate, respectively.
Briefly, after 65° C. heat denaturation for 45 minutes to reduce background caused by endogenous (and serum-derived) alkaline phosphatases that are sensitive to heat, 5 μl of supernatants was added to 95 μl of PBS and added to 100 μl of substrate buffer, containing 1 μl of 100 mM 4-methylumbelliferyl phosphate (4-MUP; Sigma, St. Louis, Mo.) re-suspended in 2 M diethanolamine. Hydrolysis of 4-MUP by SEAP produces a fluorescent substrate with excitation/emission (355/460 nm), which can be easily measured. […] 1000-ul of the mixture was seeded onto each well of a 96-well plate. […] For the assay, 4-methylumbelliferyl phosphate substrate was hydrolyzed by SEAP to 4-methylumbelliferon, a metabolite that can be excited with 364 nm and detected with an emission filter of 448 nm. Since SEAP is used as a marker for cell viability, reduced SEAP reading corresponds with increased iCaspase-9 activities.

primary T cells = assay: AP1903-dependent cytotoxicity in primary T cells transduced with caspase variants; assay type: cell-based, human; settings: AP1903 at Day 0 and day 4
Method: The effects of various caspase polypeptides at mostly single copy in primary T cells was assayed. This may reflect more accurately how these suicide genes will be used therapeutically.
Primary T cells from healthy donors (n=6) were transduced with retrovirus encoding mutant or wild-type iCasp9 or iCasp9-D330A, and the ΔCD19 cell surface marker. Following transduction, iCasp9-transduced T cells were purified using CD19-microbeads and a magnetic column.

Chain of FRB-KTF (P42345 2012-2144 W2101F): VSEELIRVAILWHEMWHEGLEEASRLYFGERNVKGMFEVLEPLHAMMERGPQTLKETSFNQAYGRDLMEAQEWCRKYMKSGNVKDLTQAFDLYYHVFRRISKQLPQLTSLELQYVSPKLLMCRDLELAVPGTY
Chain of FRB-KTF (P62942 2-108): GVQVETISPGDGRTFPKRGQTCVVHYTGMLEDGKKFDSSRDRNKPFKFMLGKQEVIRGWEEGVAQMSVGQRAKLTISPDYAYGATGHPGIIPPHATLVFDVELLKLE
Chain of FRB-PLF (P42345 2012-2144 K2095P/T2098L/W2101F): as the sequence (P42345 2012-2144 W2101F) above, with K84P, T87L counted along it
Chain of FRB-PLF (P62942 2-108): as the sequence (P62942 2-108) above
Chain of wt FRB (K2095 T2098 W2101) (P62942 2-108): as above
Chain of wt FRB (K2095 T2098 W2101) (P42345 2012-2144): as the sequence (P42345 2012-2144 W2101F) above, with F90W counted along it

CC[C@H](C(=O)N1CCCC[C@H]1C(=O)O[C@H](CCc1ccc(OC)c(OC)c1)c1cccc(OCC(=O)NCCNC(=O)COc2cccc([C@@H](CCc3ccc(OC)c(OC)c3)OC(=O)[C@@H]3CCCCN3C(=O)[C@@H](CC)c3cc(OC)c(OC)c(OC)c3)c2)c1)c1cc(OC)c(OC)c(OC)c1 (relative stereo) [AP1903, 2-Piperidinecarboxylic acid, 1-[(2S)-1-oxo-2-(3,4,5-trimethoxyphenyl)butyl]-, 1,2-ethanediylbis[imino(2-oxo-2,1-ethanediyl)oxy-3,1-phenylene[(1R)-3-(3,4-dimethoxyphenyl)propylidene]] ester, [2S-[1(R*),2R*[S*[S*[1(R*),2R*]]]]]-(9Cl)]
plasma level as % of maximal concentration ([1]; 2 hours post-dose): ~7%
plasma level as % of maximal concentration ([1]; 10 hours post-dose): ~1%
well-tolerated doses ([1]; Phase I study): up to 1 mg/kg
ablation of CD3+ΔCD19+ cells (CD3+ΔCD19+ cells; patients with grade I/II aGVHD, 0.4 mg/kg 2 h infusion, within 30 minutes of infusion): > 90%
time to resolution of skin and liver aGvHD (CD3+ΔCD19+ cells; two patients): ≤ 24 h
further change of CD3+ΔCD19+ cells (CD3+ΔCD19+ cells; within 24 hours): further log reduction
amount needed in vitro for effective signaling of cells (cells): 10 to 100 nM
SEAP activity, % of normal levels (293 cells; at much lower levels of drug): about 20%
dose sufficient to eliminate most modified T cells in vivo (human CD3+CD19+ T cells): 0.5 mg/kg

CO[C@@H]1C[C@H](C[C@@H](C)[C@@H]2CC(=O)[C@H](C)/C=C(\C)[C@@H](O)[C@@H](OC)C(=O)[C@H](C)C[C@H](C)/C=C/C=C/C=C(\C)[C@H](OC(C)C)C[C@@H]3CC[C@@H](C)[C@@](O)(O3)C(=O)C(=O)N3CCCC[C@H]3C(=O)O2)CC[C@H]1O [R-Isopropoxyrapamycin]
EC50 [2]: ~300 nM
EC50 (FRB-PLF): ~8.5 nM

CO[C@H]1C[C@@H]2CC[C@@H](C)[C@@](O)(O2)C(=O)C(=O)N2CCCC[C@H]2C(=O)O[C@H]([C@H](C)C[C@@H]2CC[C@@H](O)[C@H](OC)C2)CC(=O)[C@H](C)/C=C(\C)[C@@H](O)[C@@H](OC)C(=O)[C@H](C)C[C@H](C)/C=C/C=C/C=C/1C [Rapamycin]
maximal decrease of SEAP activity (293 cells; FRB-tagged CAR plus FKBP12-tagged Caspase-9): ~50%

COC(=O)C[C@H](NC(=O)[C@H](C)NC(=O)[C@@H](NC(=O)OCc1ccccc1)C(C)C)C(=O)CF [zVAD-fmk] (Cbz-Val-Ala-Asp(OMe)-CH2F)
effect on CID-induced apoptosis [3]: inhibited

S-Butanesulfonamidorap
EC50 (FRB-KTF): > 200 nM

B1: D330E: chimeric modified Caspase-9 polypeptide (protein)
chain: VDGFGDVGALESLRGNADLAYILSMEPCGHCLIINNVNFCRESGLRTRTGSNIDCEKLRRRFSSLHFMVEVKGDLTAKKMVLALLELARQDHGALDCCVVVILSHGCQASHLQFPGAVYGTDGCPVSVEKIVNIFNGTSCPSLGGKPKLFFIQACGGEQKDHGFEVASTSPEDESPGSNPEPDATPFQEGLRTFDQLEAISSLPTPSDIFVSYSTFPGFVSWRDPKSGSWYVETLDDIFEQWAHSEDLQSLLLRVANAVSVKGIYKQMPGCFNFLRKKLFFKTSASRA
CD19 mean fluorescence intensity of transduced PG13 cells, in words (PG13 packaging cells): enhanced CD19 mean fluorescence intensity (MFI)
viral titers, in words (PG13 packaging cells; upon HAT media treatment, HT1080 cells): higher viral titers
basal activity, in words (HEK293T/16 cells): less basal activity than wild type Caspase-9

B2: D330S: chimeric modified Caspase-9 polypeptide (protein)
chain: B1 chain with E198S
basal activity, in words (HEK293T/16 cells): less basal activity than wild type Caspase-9

B3: F404Y: chimeric modified Caspase-9 polypeptide (protein)
chain: B1 chain with E198D, F272Y
killing of target T cells within 10 days, in words (primary T cells): indistinguishable from wild type Caspase-9 polypeptide or D330A
